Source: the supplement of paper PMC5662764
± gives the standard deviation of the averaged measurements.

Assays:
Test in all cases: normalised growth rate inhibition (GR value) relative to DMSO control (GR (1 = untreated growth, 0 = cytostasis, <0 = cytotoxic)); higher = less growth inhibition
Conditions in all cases: 72 h
MCF10A = system: MCF10A
Description: (§1)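 Breast cancer cell lines (BT-20, Hs 578T, MCF 10A, MCF7, MDA-MB-231, SK-BR-3) were plated in 384-well plates and treated 24 h later with drugs at six concentrations (0.04-10 µM). Viable cells were counted by Hoechst/dead-cell-stain imaging at 0 and 72 h. Counts were normalised to DMSO controls on the same plate to give the relative cell count and the growth-rate inhibition (GR) value; technical plate triplicates were averaged for each biological replicate.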

SKBR3 = system: SKBR3
Description: as §1

MCF7 = system: MCF7
Description: as §1

BT20 = system: BT20
Description: as §1

MDAMB231 = system: MDAMB231
Description: as §1

HS578T = system: HS578T
Description: as §1

| Compound | normalised growth rate inhibition (MCF10A; 0.04 µM) | normalised growth rate inhibition (MCF10A; 0.12 µM) | normalised growth rate inhibition (MCF10A; 0.37 µM) | normalised growth rate inhibition (MCF10A; 1.11 µM) | normalised growth rate inhibition (MCF10A; 3.33 µM) | normalised growth rate inhibition (MCF10A; 10 µM) | normalised growth rate inhibition (SKBR3; 0.04 µM) | normalised growth rate inhibition (SKBR3; 0.12 µM) | normalised growth rate inhibition (SKBR3; 0.37 µM) | normalised growth rate inhibition (SKBR3; 1.11 µM) | normalised growth rate inhibition (SKBR3; 3.33 µM) | normalised growth rate inhibition (SKBR3; 10 µM) | normalised growth rate inhibition (MCF7; 0.04 µM) | normalised growth rate inhibition (MCF7; 0.12 µM) | normalised growth rate inhibition (MCF7; 0.37 µM) | normalised growth rate inhibition (MCF7; 1.11 µM) | normalised growth rate inhibition (MCF7; 3.33 µM) | normalised growth rate inhibition (MCF7; 10 µM) | normalised growth rate inhibition (BT20; 0.04 µM) | normalised growth rate inhibition (BT20; 0.12 µM) | normalised growth rate inhibition (BT20; 0.37 µM) | normalised growth rate inhibition (BT20; 1.11 µM) | normalised growth rate inhibition (BT20; 3.33 µM) | normalised growth rate inhibition (BT20; 10 µM) | normalised growth rate inhibition (MDAMB231; 0.04 µM) | normalised growth rate inhibition (MDAMB231; 0.12 µM) | normalised growth rate inhibition (MDAMB231; 0.37 µM) | normalised growth rate inhibition (MDAMB231; 1.11 µM) | normalised growth rate inhibition (MDAMB231; 3.33 µM) | normalised growth rate inhibition (MDAMB231; 10 µM) | normalised growth rate inhibition (HS578T; 0.04 µM) | normalised growth rate inhibition (HS578T; 0.12 µM) | normalised growth rate inhibition (HS578T; 0.37 µM) | normalised growth rate inhibition (HS578T; 1.11 µM) | normalised growth rate inhibition (HS578T; 3.33 µM) | normalised growth rate inhibition (HS578T; 10 µM) |
| --- | --- | --- | --- | --- | --- | --- | --- | --- | --- | --- | --- | --- | --- | --- | --- | --- | --- | --- | --- | --- | --- | --- | --- | --- | --- | --- | --- | --- | --- | --- | --- | --- | --- | --- | --- | --- |
| COC(=O)c1ccc2c(C(=Nc3ccc(N(C)C(=O)CN4CCN(C)CC4)cc3)c3ccccc3)c(O)[nH]c2c1 [nintedanib] | 1.012 ± 0.0058 | 0.9933 ± 0.0087 | 0.9918 ± 0.0074 | 0.99 ± 0.014 | 0.918 ± 0.069 | 0.967 ± 0.029 | 1.09 ± 0.024 | 1.02 ± 0.051 | 0.947 ± 0.028 | 0.835 ± 0.022 | 0.645 ± 0.095 | 0.0487 ± 0.37 | 0.999 ± 0.043 | 0.892 ± 0.073 | 0.748 ± 0.12 | 0.545 ± 0.15 | 0.326 ± 0.2 | 0.038 ± 0.22 | 1.03 ± 0.056 | 1.01 ± 0.088 | 0.857 ± 0.14 | 0.843 ± 0.089 | 0.692 ± 0.079 | 0.508 ± 0.12 | 1.08 ± 0.029 | 1.04 ± 0.022 | 0.9908 ± 0.0092 | 0.929 ± 0.067 | 0.842 ± 0.14 | 0.214 ± 0.56 | 0.922 ± 0.029 | 0.872 ± 0.043 | 0.727 ± 0.053 | 0.585 ± 0.14 | 0.386 ± 0.12 | 0.0955 ± 0.12 |
| CC(=O)c1c(C)c2cnc(Nc3ccc(N4CCNCC4)cn3)nc2n(C2CCCC2)c1=O [palbociclib] | 0.839 ± 0.037 | 0.743 ± 0.052 | 0.666 ± 0.048 | 0.581 ± 0.038 | 0.534 ± 0.019 | 0.408 ± 0.051 | 0.819 ± 0.12 | 0.683 ± 0.037 | 0.612 ± 0.05 | 0.595 ± 0.038 | 0.568 ± 0.049 | 0.517 ± 0.046 | 0.696 ± 0.09 | 0.552 ± 0.13 | 0.447 ± 0.15 | 0.356 ± 0.13 | 0.32 ± 0.055 | 0.294 ± 0.024 | 0.654 ± 0.069 | 0.53 ± 0.14 | 0.412 ± 0.13 | 0.295 ± 0.082 | 0.273 ± 0.066 | 0.196 ± 0.033 | 0.675 ± 0.092 | 0.579 ± 0.077 | 0.477 ± 0.075 | 0.407 ± 0.043 | 0.35 ± 0.027 | 0.278 ± 0.039 | 0.68 ± 0.03 | 0.569 ± 0.024 | 0.485 ± 0.044 | 0.411 ± 0.032 | 0.397 ± 0.019 | 0.327 ± 0.018 |
| CCOc1cc2ncc(C#N)c(Nc3ccc(F)c(Cl)c3)c2cc1NC(=O)/C=C/CN(C)C [pelitinib] | 0.542 ± 0.25 | 0.267 ± 0.27 | 0.115 ± 0.042 | 0.129 ± 0.04 | 0.111 ± 0.042 | -0.017 ± 0.046 | 0.618 ± 0.21 | 0.332 ± 0.21 | -0.0906 ± 0.18 | -0.0946 ± 0.17 | -0.052 ± 0.16 | -0.227 ± 0.096 | 1.06 ± 0.061 | 1.03 ± 0.12 | 0.935 ± 0.068 | 0.763 ± 0.14 | 0.33 ± 0.14 | -0.164 ± 0.085 | 0.966 ± 0.066 | 0.877 ± 0.099 | 0.7676 ± 0.006 | 0.697 ± 0.037 | 0.594 ± 0.13 | -0.241 ± 0.14 | 1.05 ± 0.042 | 1.03 ± 0.051 | 0.88 ± 0.043 | 0.75 ± 0.11 | 0.318 ± 0.18 | -0.143 ± 0.073 | 0.9931 ± 0.0014 | 0.956 ± 0.052 | 0.841 ± 0.042 | 0.79 ± 0.035 | 0.569 ± 0.33 | -0.122 ± 0.026 |
| C[C@@H]1C[C@H]2O[C@@H]2/C=C\C=C\C(=O)Cc2c(Cl)c(O)cc(O)c2C(=O)O1 [radicicol] | 0.886 ± 0.075 | 0.598 ± 0.21 | 0.299 ± 0.15 | 0.104 ± 0.021 | -0.0227 ± 0.054 | -0.182 ± 0.1 | 0.329 ± 0.053 | 0.0873 ± 0.083 | 0.0279 ± 0.1 | -0.0112 ± 0.14 | -0.0134 ± 0.1 | -0.166 ± 0.053 | 0.574 ± 0.059 | 0.262 ± 0.033 | 0.124 ± 0.04 | 0.123 ± 0.036 | 0.115 ± 0.035 | -0.0962 ± 0.041 | 0.839 ± 0.08 | 0.395 ± 0.11 | 0.115 ± 0.088 | -0.0176 ± 0.13 | -0.0598 ± 0.11 | -0.163 ± 0.097 | 1.06 ± 0.035 | 0.744 ± 0.084 | 0.298 ± 0.12 | 0.0741 ± 0.12 | 0.0054 ± 0.14 | -0.0299 ± 0.12 | 1.029 ± 0.01 | 0.95 ± 0.091 | 0.704 ± 0.27 | 0.321 ± 0.19 | 0.0951 ± 0.08 | 0.049 ± 0.12 |
| CC[C@H](CO)Nc1nc(NCc2ccccc2)c2ncn(C(C)C)c2n1 [roscovitine] | 0.9943 ± 0.0068 | 0.9805 ± 0.0066 | 0.9621 ± 0.0088 | 0.955 ± 0.014 | 0.926 ± 0.025 | 0.439 ± 0.19 | 1.04 ± 0.093 | 1.04 ± 0.045 | 0.979 ± 0.085 | 0.852 ± 0.043 | 0.677 ± 0.023 | 0.146 ± 0.18 | 1.07 ± 0.066 | 1.02 ± 0.024 | 0.922 ± 0.048 | 0.818 ± 0.068 | 0.717 ± 0.087 | -0.102 ± 0.15 | 1.022 ± 0.0042 | 0.9967 ± 0.0034 | 0.913 ± 0.029 | 0.844 ± 0.084 | 0.759 ± 0.062 | 0.197 ± 0.044 | 1.03 ± 0.035 | 0.971 ± 0.03 | 0.926 ± 0.03 | 0.88 ± 0.033 | 0.811 ± 0.077 | 0.401 ± 0.068 | 1.009 ± 0.01 | 1.01 ± 0.016 | 0.975 ± 0.011 | 0.954 ± 0.034 | 0.95 ± 0.054 | 0.688 ± 0.062 |
| N#CC[C@H](C1CCCC1)n1cc(-c2ncnc3[nH]ccc23)cn1 [ruxolitinib] | 0.9818 ± 0.0081 | 0.9898 ± 0.007 | 0.978 ± 0.011 | 0.956 ± 0.019 | 0.948 ± 0.021 | 0.828 ± 0.039 | 0.882 ± 0.12 | 0.903 ± 0.098 | 0.922 ± 0.086 | 0.918 ± 0.057 | 0.958 ± 0.084 | 0.81 ± 0.18 | 0.967 ± 0.062 | 0.948 ± 0.047 | 0.963 ± 0.042 | 1.05 ± 0.038 | 1.05 ± 0.027 | 0.778 ± 0.075 | 0.973 ± 0.066 | 0.942 ± 0.019 | 0.95 ± 0.046 | 0.973 ± 0.08 | 0.933 ± 0.087 | 0.707 ± 0.074 | 0.938 ± 0.065 | 0.922 ± 0.052 | 0.933 ± 0.087 | 0.95 ± 0.069 | 0.95 ± 0.043 | 0.673 ± 0.26 | 0.9891 ± 0.0054 | 0.985 ± 0.039 | 0.973 ± 0.023 | 0.9536 ± 0.0035 | 0.901 ± 0.021 | 0.693 ± 0.031 |
| CN1CCN(CCOc2cc(OC3CCOCC3)c3c(Nc4c(Cl)ccc5c4OCO5)ncnc3c2)CC1 [saracatinib] | 1.012 ± 0.0071 | 0.9684 ± 0.0069 | 0.906 ± 0.045 | 0.745 ± 0.12 | 0.534 ± 0.14 | 0.108 ± 0.033 | 1.15 ± 0.098 | 1.12 ± 0.1 | 1 ± 0.07 | 0.916 ± 0.08 | 0.763 ± 0.057 | 0.207 ± 0.11 | 0.854 ± 0.055 | 0.661 ± 0.12 | 0.43 ± 0.2 | 0.323 ± 0.27 | 0.228 ± 0.26 | 0.266 ± 0.21 | 0.993 ± 0.057 | 0.944 ± 0.024 | 0.877 ± 0.032 | 0.785 ± 0.06 | 0.621 ± 0.11 | 0.26 ± 0.07 | 0.862 ± 0.075 | 0.704 ± 0.086 | 0.587 ± 0.065 | 0.51 ± 0.09 | 0.489 ± 0.12 | 0.348 ± 0.11 | 0.9858 ± 0.0065 | 0.92 ± 0.039 | 0.828 ± 0.043 | 0.697 ± 0.088 | 0.609 ± 0.089 | 0.339 ± 0.092 |
